# Data taken from article PMC8624133, “10th Trends in Medical Mycology Held on 8 to 11 October 2021, Aberdeen, Scotland, Organized by the European Confederation of Medical Mycology (ECMM)” (Journal of Fungi, 2021).
# Like-named read-outs stand apart in the source and are kept apart here.
# Experiments:
# C. glabrata = assay: EUCAST and CLSI susceptibility, multicenter; format: cell-based, Candida glabrata; conditions: Nakaseomyces glabratus, seven laboratories
# Method: (§1) Methods: We performed a multicenter study to determine the antifugal susceptibility to AmB from AmBisome (provided by Gilead) using both CLSI and EUCAST protocols. We tested this activity against the most relevant clinical fungal species.Representative isolates from different geographical regions were included in the study. Other antifungals were evaluated (fluconazole, itraconazole, voriconazole, posaconazole, caspofungin, micafungin and anidulafungin).
# C. auris = assay: EUCAST and CLSI susceptibility, multicenter; format: cell-based, Candida auris; conditions: Candidozyma auris, seven laboratories
# Method: as §1
# A. flavus = assay: EUCAST and CLSI susceptibility, multicenter; format: cell-based; conditions: Aspergillus flavus
# Method: as §1
# Aspergillus fumigatus = assay: EUCAST and CLSI susceptibility, multicenter; format: cell-based
# Method: as §1
# [1] = system: other filamentous fungi, including Talaromyces marneffei; assay: EUCAST and CLSI susceptibility, multicenter; format: cell-based; conditions: around, read-out: GM MIC, both methods
# Method: as §1
# C. tropicalis = assay: EUCAST and CLSI susceptibility, multicenter; format: cell-based; conditions: Candida tropicalis, seven laboratories
# Method: as §1
# A. niger = assay: EUCAST and CLSI susceptibility, multicenter; format: cell-based; conditions: Aspergillus niger
# Method: as §1
# A. nidulans = assay: EUCAST and CLSI susceptibility, multicenter; format: cell-based; conditions: Aspergillus nidulans
# Method: as §1
# A. terreus = assay: EUCAST and CLSI susceptibility, multicenter; format: cell-based; conditions: Aspergillus terreus
# Method: as §1
# Candida albicans [2] = assay: EUCAST and CLSI susceptibility, multicenter; format: cell-based; conditions: seven laboratories
# Method: as §1
# [3] = system: Lomentospora prolificans and Cunninghamella bertholletiae; assay: EUCAST and CLSI susceptibility, multicenter; format: cell-based
# Method: as §1
# C. parapsilosis = assay: EUCAST and CLSI susceptibility, multicenter; format: cell-based, Candida parapsilosis; conditions: Lodderomyces parapsilosis, seven laboratories
# Method: as §1
# [4] = system: Candida isolates from animals; assay: CLSI M44-A2 disk diffusion; format: cell-based, Candida spp.; conditions: 10 µg discs; all 10 isolates
# Method: Methods: Swab samples were plated on Sabouraud dextrose agar (SDA) with the addition of chloramphenicol. M. pachydermatis strains were identified by conventional laboratory methods and their ability to grow on SDA without lipid supplementation. The identification of Candida isolates was based on their phenotypic characterization and molecular methods using the universal ITS-1 and ITS-4 primers for amplification of the internal transcribed spacer 1 (ITS1), ITS2 regions and the 5.8S ribosomal DNA region followed by sequence-based identification. Susceptibility of Candida isolates was determined as described by the CLSI M44-A2 method using MCZ, CTZ and ITZ discs (10 µg, Neo-Sensitabs, Rosco, Denmark). Because the standard procedure for Candida susceptibility testing cannot be applied to M. pachydermatis, recommended modified protocol was used. The results were interpreted according to manufacturer’s guidelines.
# A. fumigatus conidia = assay: Conidia killing by epithelial cells with sulfide donor; format: cell-based, Aspergillus fumigatus
# From the text: Materials & Methods: We deleted A. fumigatus genes to identify the enzymes primarily responsible for persulfidation as confirmed by fluorescence proteomic and microscopic analyses. We then used enzymatic assays, killing experiments and murine models to characterize the relevance of persulfidation for A. fumigatus virulence. We performed a genetic association study of the frequencies of a Single Nucleotide Polymorphism (SNP) in the human gene with the probability of suffering Invasive pulmonary aspergillosis (IPA) in hematopoietic stem cell transplant (HSCT) recipients. Next, we investigated the antifungal capacities of host cells using our engineered A549 cell line and alveolar macrophages and neutrophils derived from knock-out mice. Subsequenlty we investigated the interdependency of fungal and human persulfidation levels using Western-blot and fluorescence microscopy. Finally, we performed killing assays in the presence of a sulfide donor to potentiate host persulfidation.
# [5] = system: Scedosporium and Lomentospora species; assay: Biofilm assay; format: cell-based
# Method: (§2) Materials & Methods: Antifungal susceptibility tests and biofilm assay were performed to evaluate the activity of miltefosine against Scedosporium and Lomentospora species. Electron microscopy and fluorescent dyes, such as 2′,7′ –dichlorofluorescein diacetate and JC-1, were used to check the effects on cell integrity, oxidative stress and mitochondrial membrane potential, respectively. Miltefosine effects on fungal membrane were evaluated by fillipin staining, the susceptibility to membrane and cell wall stressors and the analysis of cell membrane permeability. Sinergystic assay was performed to check miltefosine interaction with current antifungal agents used in clinical settings.
# [6] = system: Scedosporium and Lomentospora species; assay: Antifungal susceptibility tests; format: cell-based
# Method: as §2
# T. rubrum [7] = assay: Ergosterol content by HPLC; format: cell-based, Trichophyton rubrum; conditions: control 13.56 ± 0.35 mg%
# Method: (§3) Materials & Methods: The minimum inhibitory concentration (MIC) of honokiol was assessed by broth microdilution method against standard strains (Trichophyton rubrum ATCC 28188, Trichophyton mentagrophytes ATCC 9533), and clinical isolates (T. rubrum, T. ajelloi, Microsporum canis and M. gypseum). Evaluation of honokiol effect on ergosterol biosynthesis was assessed by high performance liquid chromatography. Checkerboard microtiter method was used to identify synergistic combinations of honokiol with terbinafine against Trichophyton rubrum ATCC 28188. The combinatorial effect was evaluated by calculating the fractional inhibitory concentration index (FICI).
# [8] = system: dermatophyte standard strains and clinical isolates; assay: Broth microdilution MIC; format: cell-based, Trichophyton and Microsporum spp.; conditions: all tested strains
# Method: as §3
# [9] = system: Trichophyton rubrum ATCC 28188; assay: Checkerboard microtiter method with terbinafine; format: cell-based; conditions: honokiol + terbinafine, additive interactions
# Method: as §3
# Candida glabrata = assay: CLSI M27-A3/M27-S4 MIC and MFC; format: cell-based
# Method: (§4) Methods & Materials: To evaluate the antifungal effect of each combination of nystatin and morencidine-like peptide, the protocol presented in CLSI M27-A3 and CLSI M27-S4 was used and the minimum inhibitory concentration was determined.
# Candida tropicalis = assay: CLSI M27-A3/M27-S4 MIC and MFC; format: cell-based
# Method: as §4
# Candida albicans [10] = assay: CLSI M27-A3/M27-S4 MIC and MFC; format: cell-based
# Method: as §4
# [11] = system: clinical Trichophyton spp. isolates; assay: Checkerboard microdilution based on EUCAST; format: cell-based; conditions: for MIC: Trichophyton, read-out: geometric mean MIC, drug alone; for FICI of isolates exhibiting synergy / isolates with synergistic interactions: terbinafine + itraconazole
# Method: Materials & Methods: The combination has been tested against 9 terbinafine-susceptible and 7 terbinafine-resistant clinical Trichophyton spp. isolates from India. In vitro interactions were evaluated by a microdilution checkerboard technique based on the EUCAST reference method for antifungal susceptibility testing. The mode of interaction between terbinafine and itraconazole was determined by the fractional inhibitory concentration index (FICI). The FICI was interpreted as FICI ≤ 0.5 = synergy, FICI > 0.5–4 = no interaction, and FICI > 4.0 = antagonism.
# T. mentagrophytes [12] = assay: EUCAST E.DEF11.0 susceptibility
# Method: Materials/methods: Samples from patients with clinically suspected dermatophytosis attending the outpatient Dermatology-Venereology Department of “Attikon” hospital during 2010–2019 were collected. Specimens were processed for direct microscopic examination (Blankophor in 10% KOH) and were inoculated on two plates each of Sabouraud’s dextrose agar supplemented with gentamicin + chloramphenicol and the other containing phenol red + cyclohexamide (incubation at 30 °C up to 4 weeks). Recovered isolates were identified to the genus and species level by standard phenotypic methods based on their colonial/microscopic morphology and biochemical properties (hydrolysis of urea) and were stored in 10% glycerol stocks at −70 °C.
# [13] = system: environmental yeasts from a lagoon; assay: organism not typed; format: cell-based
# [14] = system: T. rubrum and T. interdigitale isolates; assay: CLSI M38A2 broth microdilution
# T. indotineae = conditions: eleven susceptible strains; ref Arendrup et al., 2020; cited from earlier work
# [15] = system: T. mentagrophytes isolates; conditions: cited from earlier work
# [16] = system: clinical dermatophyte isolates; assay: Inhibition of dermatophyte biofilm formation; format: cell-based
# Method: Materials and Methods: The study population consisted of 50 dermatophyte isolates that were collected from 2019 to 2020 from patients referred to the two mycology laboratory of Shiraz, Iran. The isolates were identified by ITS gene region sequencing. The suspension (equivalent to 0.5 McFarland) of the isolates was used to evaluate the ability of the isolates to form biofilms and also the effect of itraconazole, terbinafine and griseofulvin at concentrations of 2–32 μg/mL on inhibiting biofilm formation. Two optical microscope and a scanning electron microscope were used to study the microscopic structure of biofilms formed on the surface of 96-well plate wells.
# [17] = system: Exophiala phaeomuriformis; assay: MIC, CLSI M27-A3; format: cell-based; conditions: read-out: MIC values
# In short: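 Isolate recovered from aviation kerosene by 0.22 μm membrane filtration, grown on potato dextrose agar at 30 °C for seven days and identified by ITS sequencing. Susceptibility to clinical antifungals tested per CLSI M27-A3.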
# dermatophyte strains = assay: Terbinafine modified breakpoint method; format: cell-based
# Method: In vitro sensitivity testing against terbinafine was carried out using a modified breakpoint method according to Yamada et al., (2017) and Ebert et al., (2020).
# Trichophyton spp. = assay: Agar-based screening method; format: cell-based; conditions: 0.5 McF, 5 days, 30 °C
# Method: Inter-experimental variation was evaluated by testing 10 isolates on three different days. Single-centre validation: After determining the optimal conditions for the agar screening method, 112 molecularly identified Trichophyton spp. clinical isolates were tested.
# [18] = system: T. rubrum and T. interdigitale; conditions: cited from earlier work
# T. mentagrophytes [19] = assay: EUCAST E.DEF 11.0 MIC; format: cell-based; conditions: Trichophyton mentagrophytes
# T. rubrum [20] = conditions: eight susceptible strains; ref Arendrup et al., 2020; cited from earlier work
# CDR1 = assay: Rhodamine 6G (R6G) efflux
# [21] = 7 terbinafine-resistant isolates
# [22] = 9 terbinafine-susceptible isolates
molecule,measurement,setting,value
"C[C@@H]1[C@H](O)[C@@H](C)/C=C/C=C/C=C/C=C/C=C/C=C/C=C/[C@H](O[C@@H]2O[C@H](C)[C@@H](O)[C@H](N)[C@@H]2O)C[C@@H]2O[C@](O)(C[C@@H](O)C[C@@H](O)[C@H](O)CC[C@@H](O)C[C@@H](O)CC(=O)O[C@H]1C)C[C@H](O)[C@H]2C(=O)O [AmB from AmBisome, Amphotericin B]",MIC,"C. glabrata; read-out: GM MIC, CLSI",0.33 µg/mL
same,MIC,"C. glabrata; read-out: GM MIC, EUCAST",0.34 µg/mL
same,MIC,"C. auris; read-out: GM MIC, CLSI",0.31 µg/mL
same,MIC,"C. auris; read-out: GM MIC, EUCAST",0.46 µg/mL
same,MIC,"A. flavus; read-out: GM MIC, CLSI",1.1 µg/mL
same,MIC,"A. flavus; read-out: GM MIC, EUCAST",1.7 µg/mL
same,MIC,"Aspergillus fumigatus; read-out: GM MIC, CLSI",0.64 µg/mL
same,MIC,"Aspergillus fumigatus; read-out: GM MIC, EUCAST",0.65 µg/mL
same,MIC,[1],0.2 to 0.5 µg/mL
same,MIC,"C. tropicalis; read-out: GM MIC, CLSI",0.31 µg/mL
same,MIC,"C. tropicalis; read-out: GM MIC, EUCAST",0.36 µg/mL
same,MIC,"A. niger; read-out: GM MIC, CLSI",0.36 µg/mL
same,MIC,"A. niger; read-out: GM MIC, EUCAST",0.22 µg/mL
same,MIC,"A. nidulans; read-out: GM MIC, CLSI",0.9 µg/mL
same,MIC,"A. nidulans; read-out: GM MIC, EUCAST",1.7 µg/mL
same,MIC,"A. terreus; read-out: GM MIC, CLSI",1.4 µg/mL
same,MIC,"A. terreus; read-out: GM MIC, EUCAST",2 µg/mL
same,MIC,"Candida albicans [2]; read-out: GM MIC, CLSI",0.21 µg/mL
same,MIC,"Candida albicans [2]; read-out: GM MIC, EUCAST",0.23 µg/mL
same,"activity, in words",[3],lowest activity
same,MIC,"C. parapsilosis; read-out: GM MIC, CLSI",0.38 µg/mL
same,MIC,"C. parapsilosis; read-out: GM MIC, EUCAST",0.36 µg/mL
"Clc1ccccc1C(c1ccccc1)(c1ccccc1)n1ccnc1 [CTZ, clotrimazole]",susceptibility category,[4],susceptible
C1COCCN1.COc1ccc(P(=S)(S)N2CCOCC2)cc1 (stereo not drawn) [GY4137],conidia killing capacity of epithelial cells,A. fumigatus conidia,enhanced
"CCCCCCCCCCCCCCCCOP(=O)([O-])OCC[N+](C)(C)C [Miltefosine, miltefosine]",biofilm formation,[5],reduced biofilm formation
same,inhibitory concentration,[6],2 to 4 µg/mL
"C=CCc1ccc(O)c(-c2ccc(O)c(CC=C)c2)c1 [honokiol, Honokiol]",ergosterol content,T. rubrum [7],9.52 ± 0.43 mg%
same,MIC,[8],8 to 16 µg/mL
same,FICI,[9],0.53–0.75
C[C@@H]1[C@H](O)[C@@H](C)/C=C/C=C/CC/C=C/C=C/C=C/C=C/C(O[C@H]2O[C@H](C)[C@@H](O)[C@H](N)[C@@H]2O)CC2O[C@](O)(CC(O)C(O)CCC(O)CC(O)CC(O)CC(=O)O[C@H]1C)CC(O)C2C(=O)O (stereo partly drawn) [nystatin],MIC (maximum inhibitory effect),Candida glabrata,1.25 µg/mL
same,MIC (maximum inhibitory effect),Candida tropicalis,0.625 µg/mL
same,MIC (maximum inhibitory effect),Candida albicans [10],1.25 µg/mL
CN(C/C=C/C#CC(C)(C)C)Cc1cccc2ccccc12 [terbinafine],"MIC range, drug alone",[11]; [21],2 to 64 µg/mL
same,"MIC range, drug alone",[11]; [22],0.03125 to 0.5 µg/mL
same,MIC,[11]; [21],11.9 µg/mL
same,MIC,[11]; [22],0.12 µg/mL
same,FICI of isolates exhibiting synergy,[11]; resistant isolates,0.032 to 0.3125
same,isolates with synergistic interactions,[11]; resistant isolates,4/7
same,FICI of isolates exhibiting synergy,[11]; susceptible isolates,0.3125 to 0.5
same,isolates with synergistic interactions,[11]; susceptible isolates,4/9
same,strains with elevated MICs,T. mentagrophytes [12]; 9/24,37.5%
same,MIC,"T. mentagrophytes [12]; Trichophyton mentagrophytes, read-out: MIC of strains with elevated MICs",0.25 to 8 µg/mL
same,MIC,[8],0.03 to 0.06 µg/mL
same,isolates classified as resistant-like,[13],39
same,MIC,[13]; read-out: MIC of resistant-like isolates,4 to 256 µg/mL
same,isolates less susceptible by microdilution,[14],2.44%
same,MIC,[14]; Trichophyton interdigitale,1 to 2 µg/mL
same,MIC,T. indotineae,under 0.25 µg/µL
same,resistant isolates,[15],30–70%
same,IC50,"[16]; inhibition of biofilm formation, read-out: mean concentrations of IC50",2.42 µg/mL
same,samples with IC50 in concentration <2,[16]; tested at 2–32 μg/mL,70%
same,MIC,[17],0.0156 µg/mL
same,in vitro resistance,"dermatophyte strains; T. mentagrophytes ITS type VIII (T. indotineae), MIC ≥0.2 µg/mL counts as resistant",In vitro resistance
same,MIC,"dermatophyte strains; few strains, conspicuous but not resistant",0.1 µg/mL
same,optimal agar concentration preventing growth of WT isolates,Trichophyton spp.; for high-level resistant isolates,0.125 mg/L
same,optimal agar concentration preventing growth of WT isolates,Trichophyton spp.; for low-level resistant isolates,0.01 mg/L
same,terbinafine resistance,[18],1%
same,MIC,T. mentagrophytes [19],0.25 to 8 µg/mL
same,MIC,T. rubrum [20],under 0.25 µg/µL
Milbemycin oxim A3,R6G efflux phenotype,CDR1,mimicked efflux phenotypes of cdr1∆ mutants
